Patent publication US4029671A, “3-[(5-nitro-2-imidazolyl)pyrazol-5-yl]oxamic acid derivatives” (priority 1976, dated 1977)
Converted amounts (≈) assume the structure as drawn. Where a name gives a salt, the structure may show the parent alone.

How the values were obtained:
[1] = test system: Bacteroides fragilis sp. fragilis 107; assay: Agar dilution susceptibility of anaerobic bacteria (Chart 1); assay type: cell-based; conditions: Bacteroides fragilis, 24 h, read-out: 24 Hr. MIC
[2] = test system: Bacteroides fragilis sp. vulgatis 1563; assay: as above; assay type: cell-based
[3] = test system: Peptostreptococcus anaerobius 1428; assay: as above; assay type: cell-based; conditions: Peptostreptococcus anaerobius, 1428, 24 h, read-out: 24 Hr. MIC
[4] = test system: Bacteroides fragilis sp. fragilis 106; assay: as above; assay type: cell-based
[5] = test system: Bacteroides fragilis sp. fragilis 1470; assay: as above; assay type: cell-based
[6] = test system: Bacteroides corrodens 1874; assay: as above; assay type: cell-based; conditions: Eikenella corrodens, 1874, 24 h, read-out: 24 Hr. MIC
[7] = test system: Fusobacterium symbiosum 1470; assay: as above; assay type: cell-based; conditions: Fusobacterium, 1470, 24 h, read-out: 24 Hr. MIC
[8] = test system: Bacteroides fragilis sp. fragilis 62; assay: as above; assay type: cell-based
[9] = test system: Bacteroides vulgatis 1211; assay: as above; assay type: cell-based; conditions: Bacteroides, 1211, 24 h, read-out: 24 Hr. MIC
[10] = test system: Clostridium septicum 1128; assay: as above; assay type: cell-based; conditions: Clostridium septicum, 1128, 24 h, 37° C.
Procedure: The susceptibility of anaerobic bacteria, both gram positive and gram negative, to a representative number of the novel compounds of this application was determined using the agar dilution method. The bacteria used were isolated from patients hospitalized at the Indiana Univerisity Medical Center. The isolates were identified in the anaerobe laboratory of the Medical Center by the criteria established by Dowell et al., Laboratory Methods in Anaerobic Bacteriology. Public Health Serv. Publ. NO. 1803 (1968) [Center for Disease Control, Atlanta, Ga.]; and by Smith et al., The Pathogenic Anaerobic Bacteria, pages 96- 136 (1968) [Charles C. Thomas, Publisher, Springfield, Ill.]. All the organisms were maintained in chopped meat glucose medium (Scott Labs) at room temperature.
The method used for the agar dilution tests was based on the studies of Sutter et al., Antimicrob. Ag. Chemother. 3, 188-193 (1973). The strains of anaerobic bacteria were grown in 16×× 120 mm. tubes for 16 to 18 hours in Thioglycolate medium without indicator-- 135C (Becton, Dickinson and Co.), to which was added 5 mcg. of hemin per milliliter prior to autoclaving, plus 1 mg. of sodium bicarbonate and 0.1 mcg. of filter-sterilized menadione per milliliter after autoclaving. The strains were adjusted to the turbidity of the No. 1 McFarland standard in Thioglycolate medium without indicator-- 135C containing an additional 0.13 percent Bacto-agar (Difco). Each strain was then applied to the surface of the petri plate (100 mm× 15 mm.) by means of a replicator.
For the agar dilution studies, two-fold dilutions of the test compounds were prepared in deionized water to which was then added laked sheep blood and filter-sterilized menadione so the concentrations after the agar dilution were 5 percent and 10 mcg./ml. respectively. An equal volume of double strength Brucella agar (Becton, Dickinson and Co.) was mixed with each dilution in a water bath held at 50° C. and then poured onto the petri dishes.
All of the procedures were done inside a plastic glove box, except for the incubation of the growth tubes and the pouring of the plates. After the plates hardened, they were put inside the glove box for a minimum of 2 hours before they were inoculated. Generally, the glove box procedures of Aranki et al., Applied Microbiology 17, 568-576 (1969), were followed, but the following modifications were used. Dry materials were introduced into the glove box by evacuating the lock to 28 inches of mercury and filling once with nitrogen gas, followed by evacuating in the same manner and filling with an 80 percent nitrogen plus 10 percent CO2 plus 10 percent hydrogen gas mixture. Liquid media and agar plates were introduced into the glove box by evacuating the lock to 10 inches of mercury and filling with gas four times. The nitrogen gas was used to fill the lock for the first two cycles of evacuation, with the gas mixture described above used for the final two fillings.
All the plates were incubated at 37° C. in Gas Pak jars (Becton, Dickinson and Co.) containing palladium-coated alumina catalysts (reactivated after each use). The results of the agar dilution tests were read after about 24 hours of incubation. The minimum inhibitory concentration (MIC) was recorded as the lowest concentration of test compound at which there was no growth.
The test compounds are identified by the number of the example describing their preparation. The antibiotics clindamycin (C), and erythromycin (E) were also run simultaneously with the novel compounds of this application,for comparison purposes, and the results are included in Chart 1 below.

[11] = test system: Bacteroides fragilis sp. fragilis 1874; assay: as above; assay type: cell-based
[12] = test system: Bacteroides fragilis sp. fragilis 1877; assay: as above; assay type: cell-based
[13] = test system: Eubacterium aerofaciens 1235; assay: as above; assay type: cell-based; conditions: Collinsella aerofaciens, 1235, 24 h, read-out: 24 Hr. MIC
[14] = test system: Bacteroides fragilis sp. fragilis 110; assay: as above; assay type: cell-based
[15] = test system: Bacteroides fragilis sp. fragilis 1936B; assay: as above; assay type: cell-based; conditions: Bacteroides fragilis, 24 h, read-out: 24 Hr. MIC
[16] = test system: Bacteroides fragilis sp. fragilis 113; assay: as above; assay type: cell-based
[17] = test system: Fusobacterium necrophorum 6054A; assay: as above; assay type: cell-based; conditions: Fusobacterium necrophorum, 6054A, 24 h, read-out: 24 Hr. MIC
[18] = test system: Clostridium perfringens 81; assay: microbe, parasite or virus in culture; assay type: cell-based; conditions: Clostridium perfringens, 81, 24 h, read-out: 24 Hr. MIC, agar dilution, 37° C.
[19] = test system: Bacteroides melaninogenicus 2736; assay: Agar dilution susceptibility of anaerobic bacteria (Chart 1); assay type: cell-based; conditions: 2736, 24 h, read-out: 24 Hr. MIC
Peptococcus prevoti 1281 = assay: as above; assay type: cell-based; conditions: 24 h, read-out: 24 Hr. MIC, agar dilution, 37° C.
[20] = test system: Bacteroides fragilis sp. fragilis 1451; assay: as above; assay type: cell-based; conditions: Bacteroides fragilis, 24 h, read-out: 24 Hr. MIC
[21] = test system: Bacteroides fragilis sp. fragilis 103; assay: as above; assay type: cell-based
[22] = test system: Bacteroides fragilis sp. thetaiotaomicron 1438; assay: as above; assay type: cell-based
[23] = test system: Bacteroides melaninogenicus 1856/28; assay: as above; assay type: cell-based; conditions: Prevotella intermedia, 1856/28, 24 h, read-out: 24 Hr. MIC
[24] = test system: Peptostreptococcus intermedius 1264; assay: as above; assay type: cell-based; conditions: Peptostreptococcus, 1264, 24 h, read-out: 24 Hr. MIC
[25] = test system: Bacteroides fragilis sp. fragilis 104; assay: as above; assay type: cell-based; conditions: Bacteroides fragilis, 24 h, read-out: 24 Hr. MIC
[26] = test system: Bacteroides fragilis sp. fragilis 112; assay: as above; assay type: cell-based
[27] = test system: Bacteroides fragilis sp. fragilis 2; assay: as above; assay type: cell-based; conditions: Bacteroides fragilis, 24 h, read-out: 24 Hr. MIC
[28] = test system: Bacteroides fragilis sp. fragilis 9; assay: as above; assay type: cell-based
[29] = test system: Actinomyces israelii W855; assay: as above; assay type: cell-based; conditions: 24 h, agar dilution, 37° C., read-out: 24 Hr. MIC
[30] = test system: Bacteroides fragilis sp. fragilis 111; assay: as above; assay type: cell-based
[31] = test system: Bacteroides fragilis sp. fragilis 108; assay: as above; assay type: cell-based
[32] = test system: Propionibacterium acnes 79; assay: as above; assay type: cell-based; conditions: Cutibacterium acnes, 79, 24 h, read-out: 24 Hr. MIC
[33] = test system: Peptococcus asaccharolyticus 1302; assay: as above; assay type: cell-based; conditions: Peptoniphilus asaccharolyticus, 1302, 24 h, read-out: 24 Hr. MIC
[34] = test system: Bacteroides fragilis sp. thetaiotaomicron 1900A; assay: as above; assay type: cell-based
Salmonella typhimurium = assay: Control of infections caused by Salmonella typhimurium in chickens (Chart 2); assay type: in vivo; conditions: 60 mg./kg. subcutaneous, day-old chicks, 5 per group, 6 days observation
Procedure: The efficacy of the novel compounds in the control of infections caused by Salmonella typhimurium in chickens was evaluated in the following manner. The test was carried out using day-old chicks weighing approximately 35 g. each. The chicks were divided into groups of 5 chicks per each dosage level. A portion of the chicks received the test compound which was suspended in 0.2 ml. of polyethylene glycol 200 and administered subcutaneously in the neck. […] All the chicks were challenged with a 1:200 dilution of a culture of the organism, 0.1 ml. of the dilution being injected into each chick in the leg intramuscularly. […] The test compounds are identified in the same manner as set forth in experiment 1. In the chart, column 1 lists the compounds tested; column 2, the dosage of test compound in mg./kg.; and column 3, the survival ratio.

[35] = Bacteroides fragilis, 24 h, read-out: 24 Hr. MIC

CC[C@H]1OC(=O)[C@H](C)[C@@H](O[C@H]2C[C@@](C)(OC)[C@@H](O)[C@H](C)O2)[C@H](C)[C@@H](O[C@@H]2O[C@H](C)C[C@H](N(C)C)[C@H]2O)[C@](C)(O)C[C@@H](C)C(=O)[C@H](C)[C@@H](O)[C@]1(C)O [E, erythromycin, reference compound]
MIC [1]: 2 µg/mL (≈ 2.73 µM)
MIC [2, 35]: 1 µg/mL (≈ 1.36 µM)
MIC [3]: ≤ 0.5 µg/mL
MIC [4, 35]: 4 µg/mL (≈ 5.45 µM)
MIC [5, 35]: 8 µg/mL (≈ 10.9 µM)
MIC [6]: ≤ 0.5 µg/mL
MIC [7]: ≤ 0.5 µg/mL
MIC [8, 35]: 8 µg/mL (≈ 10.9 µM)
MIC [9]: 1 µg/mL (≈ 1.36 µM)
MIC [10]: 1 µg/mL (≈ 1.36 µM)
MIC [11, 35]: 0.5 µg/mL (≈ 0.681 µM)
MIC [12, 35]: 2 µg/mL (≈ 2.73 µM)
MIC [13]: ≤ 0.5 µg/mL
MIC [14, 35]: 16 µg/mL (≈ 21.8 µM)
MIC [15]: 2 µg/mL (≈ 2.73 µM)
MIC [16, 35]: 2 µg/mL (≈ 2.73 µM)
MIC [17]: 8 µg/mL (≈ 10.9 µM)
MIC [18]: 1 µg/mL (≈ 1.36 µM)
MIC [19]: 1 µg/mL (≈ 1.36 µM)
MIC (Peptococcus prevoti 1281): > 128 µg/mL
MIC [20]: 0.5 µg/mL (≈ 0.681 µM)
MIC [21, 35]: 4 µg/mL (≈ 5.45 µM)
MIC [22, 35]: 1 µg/mL (≈ 1.36 µM)
MIC [23]: 4 µg/mL (≈ 5.45 µM)
MIC [24]: ≤ 0.5 µg/mL
MIC [25]: 2 µg/mL (≈ 2.73 µM)
MIC [26, 35]: 32 µg/mL (≈ 43.6 µM)
MIC [27]: 4 µg/mL (≈ 5.45 µM)
MIC [28, 35]: 4 µg/mL (≈ 5.45 µM)
MIC [29]: ≤ 0.5 µg/mL
MIC [30, 35]: 2 µg/mL (≈ 2.73 µM)
MIC [31, 35]: 2 µg/mL (≈ 2.73 µM)
MIC [32]: ≤ 0.5 µg/mL
MIC [33]: 1 µg/mL (≈ 1.36 µM)
MIC [34, 35]: > 64 µg/mL

CCOC(=O)C(=O)Nc1c(C#N)c(-c2ncc([N+](=O)[O-])n2C)nn1C [Example 3, N-[4-Cyano-1-methyl-3-(1-methyl-5-nitroimidazol-2-yl)pyrazol-5-yl]oxamic acid, ethyl ester, potassium salt]
24 Hr. MIC ([2]; agar dilution, 37° C., Bacteroides fragilis sp. vulgatis 1563, potassium salt): 0.25 µg/mL
24 Hr. MIC ([4]; agar dilution, 37° C., Bacteroides fragilis sp. fragilis 106, potassium salt): 0.25 µg/mL
24 Hr. MIC ([5]; agar dilution, 37° C., Bacteroides fragilis sp. fragilis 1470, potassium salt): 0.25 µg/mL
24 Hr. MIC ([8]; agar dilution, 37° C., Bacteroides fragilis sp. fragilis 62, potassium salt): 0.5 µg/mL
24 Hr. MIC ([11]; agar dilution, 37° C., Bacteroides fragilis sp. fragilis 1874, potassium salt): 0.25 µg/mL
24 Hr. MIC ([12]; agar dilution, 37° C., Bacteroides fragilis sp. fragilis 1877, potassium salt): 0.25 µg/mL
24 Hr. MIC ([14]; agar dilution, 37° C., Bacteroides fragilis sp. fragilis 110, potassium salt): 0.5 µg/mL
Survival Ratio (Salmonella typhimurium; potassium salt): 3/5
24 Hr. MIC ([16]; agar dilution, 37° C., Bacteroides fragilis sp. fragilis 113, potassium salt): 0.5 µg/mL
24 Hr. MIC ([21]; agar dilution, 37° C., Bacteroides fragilis sp. fragilis 103, potassium salt): 0.125 µg/mL
24 Hr. MIC ([22]; agar dilution, 37° C., Bacteroides fragilis sp. thetaiotaomicron 1438, potassium salt): 0.5 µg/mL
24 Hr. MIC ([26]; agar dilution, 37° C., Bacteroides fragilis sp. fragilis 112, potassium salt): 0.25 µg/mL
24 Hr. MIC ([28]; agar dilution, 37° C., Bacteroides fragilis sp. fragilis 9, potassium salt): 0.25 µg/mL
24 Hr. MIC ([30]; agar dilution, 37° C., Bacteroides fragilis sp. fragilis 111, potassium salt): 0.25 µg/mL
24 Hr. MIC ([31]; agar dilution, 37° C., Bacteroides fragilis sp. fragilis 108, potassium salt): 0.25 µg/mL
24 Hr. MIC ([34]; agar dilution, 37° C., Bacteroides fragilis sp. thetaiotaomicron 1900A, potassium salt): 0.5 µg/mL

Cn1nc(-c2ncc([N+](=O)[O-])n2C)c(C#N)c1NC(=O)C(=O)NO [Example 9, N-[4-Cyano-1-methyl-3-(1-methyl-5-nitroimidazol-2-yl)pyrazol-5-yl]-N'-hydroxyoxamide]
Survival Ratio (Salmonella typhimurium): 4/5
